# Data taken from US20210308173A1, “PHARMACEUTICAL COMPOSITION COMPRISING CYCLODEXTRIN COMPLEXES OF ANETHOLE TRITHIONE OR DERIVATIVES THEREOF” (priority 2018, published 2021).
# Assay: Cyclodextrin-AOL solubility diagrams
# Assay type: physicochemical
# Text: A cyclodextrin-AOL solubility diagram would reveal the profile of the solubility curve of the AOL depending on the concentration of the cyclodextrin. The principle of this method is to add an excess of AOL to cyclodextrin solutions of increasing concentration, then to measure the amount of solubilized AOL. This method confirms the solubilization and evaluates more precisely the cyclodextrin solubilizing power, to define a stoichiometry of the complexes (molar and mass ratios) over the entire range of concentrations studied and to estimate the solubility limit and the stability of the mixtures.
# The solubilization was carried out with HP-β-CD and SBE-β-CD in a range of concentration ranging from 2.5% to 40% (m/m) at 20° C., 25° C. and 30° C. To check the stability of the solution, a storage test at 4° C. for 48 hours was carried out with the solutions previously prepared at 20° C.
# Aqueous solutions of cyclodextrin at in weight (m/m) concentrations of 2.5%, 5%, 10%, 20%, 30% and 40% were prepared in pure water. An excess of AOL was suspended in 2 mL each of these solutions. Each sample is shaken at 20° C., 25° C. or 30° C. for 4 hours (vortex at 1400 rpm). Each sample is centrifuged (12,500 g) and filtered through a 0.45 μm membrane.
# The solubility of AOL in each test solution was quantified by HPLC as detailed in Example 2.
# [1] = HP-β-CD 2.5% (w/w), 20° C. followed by 48 hours at 4° C.
# [2] = HP-β-CD 5% (w/w), 20° C. followed by 48 hours at 4° C.
# [3] = HP-β-CD 10% (w/w), 20° C. followed by 48 hours at 4° C.
# [4] = HP-β-CD 20% (w/w), 20° C. followed by 48 hours at 4° C.
# [5] = HP-β-CD 30% (w/w), 20° C. followed by 48 hours at 4° C.
# [6] = HP-β-CD 40% (w/w), 20° C. followed by 48 hours at 4° C.
# [7] = SBE-β-CD 2.5% (w/w), 20° C. followed by 48 hours at 4° C.
# [8] = SBE-β-CD 5% (w/w), 20° C. followed by 48 hours at 4° C.
# [9] = SBE-β-CD 10% (w/w), 20° C. followed by 48 hours at 4° C.
compound,measurement,setting,value
"COc1ccc(-c2cc(=S)ss2)cc1 [AOL, 5-(4-methoxyphenyl)-3H-1,2-dithiole-3-thione]",CD/AOL molar ratio RM,"HP-β-CD 2.5% (w/w), 20° C.",200
same,CD/AOL weight ratio Rm,"HP-β-CD 2.5% (w/w), 20° C.",1866
same,CD/AOL molar ratio RM,[1],231
same,CD/AOL weight ratio Rm,[1],2155
same,CD/AOL molar ratio RM,"HP-β-CD 2.5% (w/w), 25° C.",137
same,CD/AOL weight ratio Rm,"HP-β-CD 2.5% (w/w), 25° C.",1282
same,CD/AOL molar ratio RM,"HP-β-CD 2.5% (w/w), 30° C.",103
same,CD/AOL weight ratio Rm,"HP-β-CD 2.5% (w/w), 30° C.",958
same,CD/AOL molar ratio RM,"HP-β-CD 5% (w/w), 20° C.",196
same,CD/AOL weight ratio Rm,"HP-β-CD 5% (w/w), 20° C.",1832
same,CD/AOL molar ratio RM,[2],213
same,CD/AOL weight ratio Rm,[2],1992
same,CD/AOL molar ratio RM,"HP-β-CD 5% (w/w), 25° C.",133
same,CD/AOL weight ratio Rm,"HP-β-CD 5% (w/w), 25° C.",1247
same,CD/AOL molar ratio RM,"HP-β-CD 5% (w/w), 30° C.",104
same,CD/AOL weight ratio Rm,"HP-β-CD 5% (w/w), 30° C.",973
same,CD/AOL molar ratio RM,"HP-β-CD 10% (w/w), 20° C.",175
same,CD/AOL weight ratio Rm,"HP-β-CD 10% (w/w), 20° C.",1631
same,CD/AOL molar ratio RM,[3],203
same,CD/AOL weight ratio Rm,[3],1898
same,CD/AOL molar ratio RM,"HP-β-CD 10% (w/w), 25° C.",128
same,CD/AOL weight ratio Rm,"HP-β-CD 10% (w/w), 25° C.",1192
same,CD/AOL molar ratio RM,"HP-β-CD 10% (w/w), 30° C.",94
same,CD/AOL weight ratio Rm,"HP-β-CD 10% (w/w), 30° C.",874
same,CD/AOL molar ratio RM,"HP-β-CD 20% (w/w), 20° C.",148
same,CD/AOL weight ratio Rm,"HP-β-CD 20% (w/w), 20° C.",1381
same,CD/AOL molar ratio RM,[4],197
same,CD/AOL weight ratio Rm,[4],1840
same,CD/AOL molar ratio RM,"HP-β-CD 20% (w/w), 25° C.",116
same,CD/AOL weight ratio Rm,"HP-β-CD 20% (w/w), 25° C.",1086
same,CD/AOL molar ratio RM,"HP-β-CD 20% (w/w), 30° C.",84
same,CD/AOL weight ratio Rm,"HP-β-CD 20% (w/w), 30° C.",784
same,CD/AOL molar ratio RM,"HP-β-CD 30% (w/w), 20° C.",132
same,CD/AOL weight ratio Rm,"HP-β-CD 30% (w/w), 20° C.",1235
same,CD/AOL molar ratio RM,[5],172
same,CD/AOL weight ratio Rm,[5],1607
same,CD/AOL molar ratio RM,"HP-β-CD 30% (w/w), 25° C.",112
same,CD/AOL weight ratio Rm,"HP-β-CD 30% (w/w), 25° C.",1044
same,CD/AOL molar ratio RM,"HP-β-CD 30% (w/w), 30° C.",70
same,CD/AOL weight ratio Rm,"HP-β-CD 30% (w/w), 30° C.",655
same,CD/AOL molar ratio RM,"HP-β-CD 40% (w/w), 20° C.",124
same,CD/AOL weight ratio Rm,"HP-β-CD 40% (w/w), 20° C.",1162
same,CD/AOL molar ratio RM,[6],159
same,CD/AOL weight ratio Rm,[6],1481
same,CD/AOL molar ratio RM,"HP-β-CD 40% (w/w), 25° C.",103
same,CD/AOL weight ratio Rm,"HP-β-CD 40% (w/w), 25° C.",958
same,CD/AOL molar ratio RM,"HP-β-CD 40% (w/w), 30° C.",66
same,CD/AOL weight ratio Rm,"HP-β-CD 40% (w/w), 30° C.",621
same,CD/AOL molar ratio RM,"SBE-β-CD 2.5% (w/w), 20° C.",91
same,CD/AOL weight ratio Rm,"SBE-β-CD 2.5% (w/w), 20° C.",853
same,CD/AOL molar ratio RM,[7],158
same,CD/AOL weight ratio Rm,[7],1479
same,CD/AOL molar ratio RM,"SBE-β-CD 2.5% (w/w), 25° C.",75
same,CD/AOL weight ratio Rm,"SBE-β-CD 2.5% (w/w), 25° C.",698
same,CD/AOL molar ratio RM,"SBE-β-CD 2.5% (w/w), 30° C.",60
same,CD/AOL weight ratio Rm,"SBE-β-CD 2.5% (w/w), 30° C.",559
same,CD/AOL molar ratio RM,"SBE-β-CD 5% (w/w), 20° C.",90
same,CD/AOL weight ratio Rm,"SBE-β-CD 5% (w/w), 20° C.",838
same,CD/AOL molar ratio RM,[8],155
same,CD/AOL weight ratio Rm,[8],1445
same,CD/AOL molar ratio RM,"SBE-β-CD 5% (w/w), 25° C.",71
same,CD/AOL weight ratio Rm,"SBE-β-CD 5% (w/w), 25° C.",668
same,CD/AOL molar ratio RM,"SBE-β-CD 5% (w/w), 30° C.",56
same,CD/AOL weight ratio Rm,"SBE-β-CD 5% (w/w), 30° C.",520
same,CD/AOL molar ratio RM,"SBE-β-CD 10% (w/w), 20° C.",85
same,CD/AOL weight ratio Rm,"SBE-β-CD 10% (w/w), 20° C.",798
same,CD/AOL molar ratio RM,[9],151
same,CD/AOL weight ratio Rm,[9],1414
same,CD/AOL molar ratio RM,"SBE-β-CD 10% (w/w), 25° C.",68
same,CD/AOL weight ratio Rm,"SBE-β-CD 10% (w/w), 25° C.",639
same,CD/AOL molar ratio RM,"SBE-β-CD 10% (w/w), 30° C.",54
same,CD/AOL weight ratio Rm,"SBE-β-CD 10% (w/w), 30° C.",507
same,CD/AOL molar ratio RM,"SBE-β-CD 20% (w/w), 20° C.",77
